Several values for one entry are separate records, joined by “and”; a condition that tells them apart may be missing. Equal values may be shown once. Read-outs that look alike come from different tables or passages of the source.
Target: T1, chymotrypsin-like activity of the purified rabbit 20S proteasome (Oryctolagus cuniculus, UniProt G1T4Q9)
T1 sequence (G1T4Q9 1-263): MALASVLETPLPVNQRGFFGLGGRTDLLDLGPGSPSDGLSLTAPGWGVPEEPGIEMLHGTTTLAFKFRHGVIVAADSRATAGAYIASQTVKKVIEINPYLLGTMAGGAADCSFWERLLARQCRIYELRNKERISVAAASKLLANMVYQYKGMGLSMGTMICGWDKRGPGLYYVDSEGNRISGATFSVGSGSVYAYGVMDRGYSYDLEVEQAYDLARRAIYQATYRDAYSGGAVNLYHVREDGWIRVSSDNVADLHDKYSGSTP
Assay: 20S proteasome inhibition assay, fluorogenic substrate Suc-Leu-Leu-Val-Tyr-AMC;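 also: enzyme and 20 µM substrate incubated 1 h at 37 °C in Tris-HCl buffer pH 7.6, fluorogenic read-out, inhibition calculated against vehicle control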
Type: biochemical
Conditions: for proteasome inhibitory activity, SAR statement in words: chymotrypsin-like activity, compared with lead or analogue

[1] = individual determinations (runs M-1096, M-1098, M-1099, AK or dated), read-out: Chymotrypsin-like Activity IC50
[2] = mean of the individual determinations, read-out: Chymotrypsin-like Activity IC50 (μM), mean ± spread (n)
[3] = 30 μM, runs M-1096, M-1098, M-1099

Compound	IC50 [1]	other results
CCOC(=O)CSc1cc(NS(=O)(=O)c2cccs2)c2ccccc2c1O [9a, Ethyl 2-(1-hydroxy-4-(thiophene-2-sulfonamido)naphthalen-2-ylthio)acetate]		proteasome inhibitory activity, SAR statement in words: reduced compared to acid analogues
COC(=O)CCSc1cc(NS(=O)(=O)c2cc(Cl)c(Cl)s2)c2ccccc2c1O [HL4-098-3, Methyl-3-(4-(4,5-dichlorothiophene-2-sulfonamido)-1-hydroxynaphthalen-2-ylthio)propanoate]	0.81 µM and 1.5 µM and 1.52 µM and 0.9 µM	
CN(C)C(=O)CCSc1cc(NS(=O)(=O)c2cccs2)c2ccccc2c1O [HL4-100-1, 3-(1-hydroxy-4-(thiophene-2-sulfonamido)naphthalen-2-ylthio)-N,N-dimethylpropanamide]	> 10 µM	
CNC(=O)CCSc1cc(NS(=O)(=O)c2cccs2)c2ccccc2c1O [HL4-100-2, 3-(1-hydroxy-4-(thiophene-2-sulfonamido)naphthalen-2-ylthio)-N-methylpropanamide]	> 10 µM	
O=C(CCSc1cc(NS(=O)(=O)c2cccs2)c2ccccc2c1O)NC1CC1 [HL4-100-3, N-cyclopropyl-3-(1-hydroxy-4-(thiophene-2-sulfonamido)naphthalen-2-ylthio)propanamide]	8.6 µM and 6 µM and > 10 µM	IC50 [2]: 7.3 µM
O=C1C=C(O)C(=O)c2ccccc21 [S.M. of YL2-013, 2-hydroxynaphthalene-1,4-dione]	> 10 µM	
O=S(=O)(Nc1cc(Cl)c(O)c2ccccc12)c1cccs1 [YG1-012, N-(3-chloro-4-hydroxynaphthalen-1-yl)thiophene-2-sulfonamide]	> 30 µM and 45 µM and 36 µM	Chymotrypsin-like Activity Inhibition at 30 μM [3]: 41% and 45%; inhibition at 30 µM [3]: 33%; Chymotrypsin-like Activity Inhib at 100 μM (100 μM): 97%; inhibition at 100 µM (100 μM, read-out: Chymotrypsin-like Activity Inhib at 100 μM): 82%
CCOC(=O)CSC1=C(SCC(=O)OCC)C(=O)c2ccccc2C1=O [YG1-017]	> 30 µM and 48 µM and > 100 µM	Chymotrypsin-like Activity Inhib at 100 μM (100 μM): 57% and 36%
CCOC(=O)CSC1=CC(=O)c2ccccc2C1=O [YG1-059, Ethyl 2-(1,4-dioxo-1,4-dihydronaphthalen-2-ylthio)acetate]	> 100 µM	inhibition at 30 µM [3]: 49%
O=S(=O)(Nc1cc(SCCO)c(O)c2ccccc12)c1cccs1 [YG1-087-2, N-(4-hydroxy-3-(2-hydroxyethylthio)naphthalen-1-yl)thiophene-2-sulfonamide]	> 10 µM	proteasome inhibitory activity, SAR statement in words: the inhibitory activity totally lost
CCOC(=O)CSc1cc(NS(=O)(=O)c2cccs2)c2ccccc2c1O [YG1-094-2]	2.67 µM and 9.65 µM and 9.5 µM	
COC(=O)CCSc1cc(NS(=O)(=O)c2cccs2)c2ccccc2c1O [YG1-107]	2.28 µM and 2.26 µM and 6.6 µM and 3.9 µM and 7.1 µM and 7.7 µM	
COC(=O)CCSC1=C/C(=N\S(=O)(=O)c2cccs2)c2ccccc2C1=O [YG1-112]	2.2 µM and 5.9 µM and 6.1 µM and > 10 µM (2×) and 6 µM and 3 µM	IC50 [2]: 4.64 µM
O=C(O)CSc1cc(NS(=O)(=O)c2ccccc2)c2ccccc2c1O [YG1-117, 2-(1-hydroxy-4-(phenylsulfonamido)naphthalen-2-ylthio)acetic acid]	0.68 µM and 2.71 µM and 2.9 µM and 1.9 µM and 2.2 µM	IC50 (value quoted in running text / FIG. 11, read-out: IC50 against chymotrypsin-like proteasome activity): 2.08 µM
CCOC(=O)CS(=O)(=O)c1cc(NS(=O)(=O)c2cccs2)c2ccccc2c1O [YG1-133, Ethyl 2-(1-hydroxy-4-(thiophene-2-sulfonamido)naphthalen-2-ylsulfonyl)acetate]	8.2 µM and > 10 µM (2×)	
CCOC(=O)CSc1cc(NS(=O)(=O)c2ccc([N+](=O)[O-])cc2)c2ccccc2c1O [YG1-148F5, Ethyl 2-(1-hydroxy-4-(4-nitrophenylsulfonamido)naphthalen-2-ylthio)acetate]	0.82 µM and 4.55 µM and 5.36 µM	proteasome inhibitory activity, SAR statement in words: slightly enhanced the activity
O=C(O)CSc1cc(NS(=O)(=O)c2ccc(Cl)cc2)c2ccccc2c1O [YG2-034-1, 2-(4-(4-chlorophenylsulfonamido)-1-hydroxynaphthalen-2-ylthio)acetic acid]	> 10 µM and 3.44 µM and 4.15 µM	
CC(C)(C)OC(=O)COc1ccc(NS(=O)(=O)c2cccs2)c2ccccc12 [YG2-080, tert-butyl 2-(4-(thiophene-2-sulfonamido)naphthalen-1-yloxy)acetate]	> 10 µM	
CCSc1cc(NS(=O)(=O)c2cccs2)c2ccccc2c1O [YG2-087-1, N-(3-(ethylthio)-4-hydroxynaphthalen-1-yl)thiophene-2-sulfonamide]		proteasome inhibitory activity, SAR statement in words: the inhibitory activity totally lost
Nc1ccc(SCC(=O)O)c2ccccc12 [YG3-005, 2-(4-aminonaphthalen-1-ylthio)acetic acid]	> 10 µM	
CC(C)(C)OC(=O)CC1C(=O)C(=O)c2ccccc2C1=O (centres unmarked) [YL2-015 4th spot]	> 10 µM	
CC(C)(C)OC(=O)COc1cc(NS(=O)(=O)c2cccs2)c2ccccc2c1O [YL2-025, tert-Butyl-2-(1-hydroxy-4-(thiophene-2-sulfonamido)naphthalen-2-yloxy)acetate]	> 10 µM	

Continued, in another order:

IC50 [1]	Compound	other results
4.7 µM and 9.65 µM and 9.56 µM and 8.5 µM and > 10 µM	CN(C)C(=O)CCSC1=C/C(=N\S(=O)(=O)c2cccs2)c2ccccc2C1=O [HL4-078-1, N,N-dimethyl-3-(1-oxo-4-(thiophen-2-ylsulfonylimino)-1,4-dihydronaphthalen-2-ylthio)propanamide]	IC50 [2]: 8.1 µM
8.1 µM and > 10 µM (2×)	CNC(=O)CCSC1=C/C(=N\S(=O)(=O)c2cccs2)c2ccccc2C1=O [HL4-078-2, N-methyl-3-(1-oxo-4-(thiophen-2-ylsulfonylimino)-1,4-dihydronaphthalen-2-ylthio)propanamide]	
5.5 µM and 8.65 µM and > 10 µM (2×)	O=C(CCSC1=C/C(=N\S(=O)(=O)c2cccs2)c2ccccc2C1=O)NC1CC1 [HL4-078-3, N-cyclopropyl-3-(1-oxo-4-(thiophen-2-ylsulfonylimino)-1,4-dihydronaphthalen-2-ylthio)propanamide]	IC50 [2]: 8.05 µM
> 30 µM and > 100 µM and 35 µM	O=S(=O)(Nc1ccc(O)c2ccccc12)c1cccs1 [YG1-004, N-(4-hydroxynaphthalen-1-yl)thiophene-2-sulfonamide]	Chymotrypsin-like Activity Inhib at 100 μM (100 μM): 44% and 67%; proteasome inhibitory activity, SAR statement in words: loss of the inhibitory activity
> 30 µM and > 100 µM and 28 µM	O=S(=O)(Nc1cc(Br)c(O)c2ccccc12)c1cccs1 [YG1-034, N-(3-bromo-4-hydroxynaphthalen-1-yl)thiophene-2-sulfonamide]	
1.6 µM and > 10 µM and 2.8 µM and 3 µM and 1.5 µM and 2.5 µM	CCOC(=O)CSC1=C/C(=N\S(=O)(=O)c2cccs2)c2ccccc2C1=O [YG1-094]	IC50 [2]: 2.28 µM
> 10 µM	CCOC1=C/C(=N\S(=O)(=O)c2cccs2)c2ccccc2C1=O [YG1-122, N-(3-ethoxy-4-oxonaphthalen-1(4H)-ylidene)thiophene-2-sulfonamide]	
> 10 µM	CN(C)C1=C/C(=N\S(=O)(=O)c2cccs2)c2ccccc2C1=O [YG1-125, N-(3-(dimethylamino)-4-oxonaphthalen-1(4H)-ylidene)thiophene-2-sulfonamide]	
> 10 µM	O=C1C(N2CCN(c3ccccn3)CC2)=C/C(=N\S(=O)(=O)c2cccs2)c2ccccc21 [YG1-130]	
> 10 µM	O=C(O)CS(=O)(=O)c1cc(NS(=O)(=O)c2cccs2)c2ccccc2c1O [YG1-134, 2-(1-hydroxy-4-(thiophene-2-sulfonamido)naphthalen-2-ylsulfonyl)acetic acid]	proteasome inhibitory activity, SAR statement in words: loss or reduction of the inhibitory activity
> 10 µM	O=C(O)c1cccc(NC2=C/C(=N\S(=O)(=O)c3cccs3)c3ccccc3C2=O)c1 [YG1-174, 3-(1-oxo-4-(thiophen-2-ylsulfonylimino)-1,4-dihydronaphthalen-2-ylamino)-benzoic acid]	
> 10 µM	CCOC(=O)CSC1=C/C(=N\S(=O)(=O)c2ccc(-c3ccccc3)cc2)c2ccccc2C1=O [YG2-011]	
4 µM and 4.7 µM and 4.2 µM and > 10 µM	CCOC(=O)CSC1=C/C(=N\S(=O)(=O)c2ccc(C)cc2)c2ccccc2C1=O [YG2-014, Ethyl 2-(1-oxo-4-(tosylimino)-1,4-dihydronaphthalen-2-ylthio)acetate]	IC50 [2]: 4.3 µM
6.9 µM and 7.6 µM and > 10 µM (4×)	CCOC(=O)CSC1=C/C(=N\S(=O)(=O)Cc2ccc(Cl)cc2)c2ccccc2C1=O [YG2-019, Ethyl 2-(4-(4-chlorobenzylsulfonylimino)-1-oxo-1,4-dihydronaphthalen-2-ylthio)-acetate]	IC50 [2]: 7.25 µM
> 10 µM	O=C(O)COc1ccc(NS(=O)(=O)c2cccs2)c2ccccc12 [YG2-083, 2-(4-(thiophene-2-sulfonamido)naphthalen-1-yloxy)acetic acid]	
9.4 µM and 9.85 µM	CCSC1=C/C(=N\S(=O)(=O)c2cccs2)c2ccccc2C1=O [YG2-086-1, N-(3-(ethylthio)-4-oxonaphthalen-1(4H)-ylidene)thiophene-2-sulfonamide]	
> 10 µM	O=C(O)CCCOc1ccc(NS(=O)(=O)c2cccs2)c2ccccc12 [YG2-094, 4-(4-(thiophene-2-sulfonamido)naphthalen-1-yloxy)butanoic acid]	
1.1 µM and 1.79 µM	O=C1CSc2cc(NS(=O)(=O)c3cccs3)c3ccccc3c2O1 [YG2-120, N-(2-oxo-2,3-dihydronaphtho[1,2-b][1,4]oxathiin-6-yl)thiophene-2-sulfonamide]	
4.25 µM and 2.75 µM	O=C1C(Cl)=C/C(=N\S(=O)(=O)c2cccs2)c2ccccc21 [YG2-133-2]	
> 10 µM	O=C(O)CSc1ccc(NS(=O)(=O)c2cccs2)c2ccccc12 [YG3-007, 2-(4-(thiophene-2-sulfonamido)naphthalen-1-ylthio)acetic acid]	
> 10 µM	CC(C)(C)OC(=O)COC1=C/C(=N\S(=O)(=O)c2cccs2)c2ccccc2C1=O [YL2-023, tert-Butyl-2-(1-oxo-4-(thiophen-2-ylsulfonylimino)-1,4-dihydronaphthalen-2-yloxy)acetate]	

— patent publication US8466157B2, “Proteasome inhibitors having chymotrypsin-like activity” (University of South Florida, priority 2009, dated 2013)
